Patent US12473290B2, “Imidazopyridazine compounds useful as modulators of IL-12, IL-23 and/or IFN alpha responses” (BRISTOL-MYERS SQUIBB COMPANY, priority 2019, dated 2025)

Assays:
[1] = Kit225 T Cell Assay, IL-23-stimulated STAT-dependent luciferase reporter; format: cell-based; conditions: Kit225 T cells, 20 ng/mL human recombinant IL-23, 5-6 hours, luciferase expression
Procedure: (§1) Kit225 T cells with a stably-integrated STAT-dependent luciferase reporter were plated in RPMI (Gibco) containing 10% heat-inactivated FBS (Gibco) and 100 U/mL PenStrep (Gibco). The cells were then stimulated with either 20 ng/mL human recombinant IL-23 or 200 U/mL human recombinant IFNα (PBL InterferonSource) for 5-6 hours. Luciferase expression was measured using the STEADY-GLO® Luciferase Assay System (Promega) according to the manufacturer's instructions. Inhibition data were calculated by comparison to no inhibitor control wells for 0% inhibition and non-stimulated control wells for 100% inhibition. Dose response curves were generated to determine the concentration required to inhibit 50% of cellular response (IC50) as derived by non-linear regression analysis.

[2] = system: IFNα Kit225 Reporter (Kit225 T cells with a stably-integrated STAT-dependent luciferase reporter, stimulated with IFNα); experiment: Kit225 T Cell Assay, IFNα-stimulated STAT-dependent luciferase reporter; format: cell-based; conditions: 200 U/mL human recombinant IFNα, 5-6 hours, luciferase expression
Procedure: as §1

| SMILES | IC50 [1] [µM] | IC50 [2] [µM] |
| --- | --- | --- |
| CC(C)(C)C(=O)Nc1cccc(Nc2cc(NCC3CC3)nn3c(C#N)cnc23)n1 [Example 26, N-[6-({3-cyano-6-[(cyclopropylmethyl)amino]imidazo[1,2-b]pyridazin-8-yl}amino)pyridin-2-yl]-2,2-dimethylpropanamide] | 0.9 | 0.2 |
| N#Cc1cnc2c(Nc3cccc(NC(=O)C4CC4)n3)cc(NCC3CC3)nn12 [Example 27, N-[6-({3-cyano-6-[(cyclopropylmethyl)amino]imidazo[1,2-b]pyridazin-8-yl}amino)pyridin-2-yl]cyclopropanecarboxamide] | 0.31 | 0.16 |
| CC(C)(C)CNc1cc(Nc2cccc(NC(=O)C3CC3)n2)c2ncc(C#N)n2n1 [Example 28, N-[6-({3-cyano-6-[(2,2-dimethylpropyl)amino]imidazo[1,2-b]pyridazin-8-yl}amino)pyridin-2-yl]cyclopropanecarboxamide] | 0.26 | 0.46 |
| CCNc1nc(Nc2cc(N[C@H]3CCCC[C@@H]3O)nn3c(C#N)cnc23)ccc1C(=O)N1CCCC1 [Example 29, 8-{[6-(ethylamino)-5-(pyrrolidine-1-carbonyl)pyridin-2-yl]amino}-6-{[(1S,2S)-2-hydroxycyclohexyl]amino}imidazo[1,2-b]pyridazine-3-carbonitrile] | 0.14 | 0.38 |
| CN(C)c1nc(Nc2cc(N[C@@H]3CCCC[C@H]3O)nn3c(C#N)cnc23)ccc1C(=O)N1CCN(c2ccccc2F)CC1 [Example 30, 8-{[6-(dimethylamino)-5-[4-(2-fluorophenyl)piperazine-1-carbonyl]pyridin-2-yl]amino}-6-{[(1R,2R)-2-hydroxycyclohexyl]amino}imidazo[1,2-b]pyridazine-3-carbonitrile] | 0.39 | 0.73 |
| CN(CCc1ccccn1)C(=O)c1ccc(Nc2cc(N[C@@H]3CCCC[C@H]3O)nn3c(C#N)cnc23)nc1N(C)C [Example 31, 6-[(3-cyano-6-{[(1R,2R)-2-hydroxycyclohexyl]amino}imidazo[1,2-b]pyridazin-8-yl)amino]-2-(dimethylamino)-N-methyl-N-[2-(pyridin-2-yl)ethyl]pyridine-3-carboxamide] | 0.65 | 0.87 |
| COCCNC(=O)c1ccc(Nc2cc(N[C@@H]3CCCC[C@H]3O)nn3c(C#N)cnc23)nc1N(C)C [Example 32, 6-[(3-cyano-6-{[(1R,2R)-2-hydroxycyclohexyl]amino}imidazo[1,2-b]pyridazin-8-yl)amino]-2-(dimethylamino)-N-(2-methoxyethyl)pyridine-3-carboxamide] | 0.67 | 0.76 |
| N#Cc1cnc2c(Nc3ccc(C(=O)N4CCCC4C(F)(F)F)c(OCC(F)F)n3)cc(N[C@@H]3CCCC[C@H]3O)nn12 (stereo partly drawn) [Example 33, 8-{[6-(2,2-difluoroethoxy)-5-[2-(trifluoromethyl)pyrrolidine-1-carbonyl]pyridin-2-yl]amino}-6-{[(1R,2R)-2-hydroxycyclohexyl]amino}imidazo[1,2-b]pyridazine-3-carbonitrile] | 0.67 | 0.85 |
| N#Cc1cnc2c(Nc3ccc(C(=O)N4C[C@H]5CC[C@@H]4C5)c(OCC(F)F)n3)cc(N[C@@H]3CCCC[C@H]3O)nn12 [Example 34, 8-({5-[(1R,4S)-2-azabicyclo[2.2.1]heptane-2-carbonyl]-6-(2,2-difluoroethoxy)pyridin-2-yl}amino)-6-{[(1R,2R)-2-hydroxycyclohexyl]amino}imidazo[1,2-b]pyridazine-3-carbonitrile] | 0.43 | 0.58 |
| N#Cc1cnc2c(Nc3ccc(C(=O)NCC4CCCO4)c(OCC(F)F)n3)cc(N[C@@H]3CCCC[C@H]3O)nn12 (stereo partly drawn) [Example 35, 6-[(3-cyano-6-{[(1R,2R)-2-hydroxycyclohexyl]amino}imidazo[1,2-b]pyridazin-8-yl)amino]-2-(2,2-difluoroethoxy)-N-[(oxolan-2-yl)methyl]pyridine-3-carboxamide] | 0.63 | 0.61 |
| C[C@@H]1COC[C@H](C)N1C(=O)c1ccc(Nc2cc(N[C@H]3CCCC[C@@H]3O)nn3c(C#N)cnc23)nc1OCC(F)F [Example 36, 8-{[6-(2,2-difluoroethoxy)-5-[(3R,5S)-3,5-dimethylmorpholine-4-carbonyl]pyridin-2-yl]amino}-6-{[(1S,2S)-2-hydroxycyclohexyl]amino}imidazo[1,2-b]pyridazine-3-carbonitrile] | 0.5 | 0.76 |
| N#Cc1cnc2c(Nc3cccc(N4CCN(S(=O)(=O)N5CCOCC5)CC4)n3)cc(N[C@@H]3CCCC[C@H]3O)nn12 [Example 39, 6-{[(1R,2R)-2-hydroxycyclohexyl]amino}-8-({6-[4-(morpholine-4-sulfonyl)piperazin-1-yl]pyridin-2-yl}amino)imidazo[1,2-b]pyridazine-3-carbonitrile] | 0.56 | 0.79 |
| CC(=O)N1[C@H](C)CN(c2cccc(Nc3cc(NC45CC6CC(CC(O)(C6)C4)C5)nn4c(C#N)cnc34)n2)C[C@@H]1C [Example 40, 8-({6-[(3R,5S)-4-acetyl-3,5-dimethylpiperazin-1-yl]pyridin-2-yl}amino)-6-[(3-hydroxyadamantan-1-yl)amino]imidazo[1,2-b]pyridazine-3-carbonitrile] | 0.26 | 0.39 |
| C[C@@H](NC(=O)c1cccc(Nc2cc(NC34CC5CC(CC(O)(C5)C3)C4)nn3c(C#N)cnc23)n1)C(F)(F)F [Example 41, 6-({3-cyano-6-[(3-hydroxyadamantan-1-yl)amino]imidazo[1,2-b]pyridazin-8-yl}amino)-N-[(2R)-1,1,1-trifluoropropan-2-yl]pyridine-2-carboxamide] | 0.11 | 0.32 |
| CC(C)(CC(N)=O)NC(=O)c1cccc(Nc2cc(NC34CC5CC(CC(O)(C5)C3)C4)nn3c(C#N)cnc23)n1 [Example 42, 3-{[6-({3-cyano-6-[(3-hydroxyadamantan-1-yl)amino]imidazo[1,2-b]pyridazin-8-yl}amino)pyridin-2-yl]formamido}-3-methylbutanamide] | 0.71 | 0.64 |
| N#Cc1cnc2c(Nc3ccc(C(=O)N4CCCC4C(F)(F)F)c(OCC(F)F)n3)cc(NC3CCOCC3)nn12 (stereo not drawn) [Example 49, 8-{[6-(2,2-difluoroethoxy)-5-[2-(trifluoromethyl)pyrrolidine-1-carbonyl]pyridin-2-yl]amino}-6-[(oxan-4-yl)amino]imidazo[1,2-b]pyridazine-3-carbonitrile] | 0.16 | 0.22 |

The remaining lines, values ahead:

| IC50 [1] [µM] | IC50 [2] [µM] | SMILES |
| --- | --- | --- |
| 0.47 | 0.55 | CC(=O)NCc1ccc(-c2cccc(Nc3cc(N[C@@H]4CCCC[C@H]4O)nn4c(C#N)cnc34)n2)cc1 [Example 37, N-[(4-{6-[(3-cyano-6-{[(1R,2R)-2-hydroxycyclohexyl]amino}imidazo[1,2-b]pyridazin-8-yl)amino]pyridin-2-yl}phenyl)methyl]acetamide] |
| 0.89 | 0.76 | CS(=O)(=O)NCc1ccc(-c2cccc(Nc3cc(N[C@@H]4CCCC[C@H]4O)nn4c(C#N)cnc34)n2)cc1 [Example 38, N-[(4-{6-[(3-cyano-6-{[(1R,2R)-2-hydroxycyclohexyl]amino}imidazo[1,2-b]pyridazin-8-yl)amino]pyridin-2-yl}phenyl)methyl]methanesulfonamide] |
| 0.16 | 0.45 | CC(C)Oc1nc(Nc2cc(NC3CCOCC3)nn3c(C#N)cnc23)ccc1C(=O)N1CCCC1 [Example 43, 6-[(oxan-4-yl)amino]-8-{[6-(propan-2-yloxy)-5-(pyrrolidine-1-carbonyl)pyridin-2-yl]amino}imidazo[1,2-b]pyridazine-3-carbonitrile] |
| 0.24 | 0.86 | CN(C(=O)c1ccc(Nc2cc(NC3CCOCC3)nn3c(C#N)cnc23)nc1OCC(F)F)C1COC1 [Example 44, 6-({3-cyano-6-[(oxan-4-yl)amino]imidazo[1,2-b]pyridazin-8-yl}amino)-2-(2,2-difluoroethoxy)-N-methyl-N-(oxetan-3-yl)pyridine-3-carboxamide] |
| 0.74 | 0.26 | N#Cc1cnc2c(Nc3ccc(C(=O)NCC4CCCO4)c(OCC(F)F)n3)cc(NC3CCOCC3)nn12 (stereo not drawn) [Example 45, 6-({3-cyano-6-[(oxan-4-yl)amino]imidazo[1,2-b]pyridazin-8-yl}amino)-2-(2,2-difluoroethoxy)-N-[(oxolan-2-yl)methyl]pyridine-3-carboxamide] |
| 0.34 | 0.16 | N#Cc1cnc2c(Nc3ccc(C(=O)N4CC[C@@H](C#N)C4)c(OCC(F)F)n3)cc(NC3CCOCC3)nn12 [Example 47, (3R)-1-[6-({3-cyano-6-[(oxan-4-yl)amino]imidazo[1,2-b]pyridazin-8-yl}amino)-2-(2,2-difluoroethoxy)pyridine-3-carbonyl]pyrrolidine-3-carbonitrile] |
| 0.74 | 0.34 | CN(C)C1CCN(C(=O)c2ccc(Nc3cc(NC4CCOCC4)nn4c(C#N)cnc34)nc2OCC(F)F)C1 (stereo not drawn) [Example 48, 8-{[6-(2,2-difluoroethoxy)-5-[3-(dimethylamino)pyrrolidine-1-carbonyl]pyridin-2-yl]amino}-6-[(oxan-4-yl)amino]imidazo[1,2-b]pyridazine-3-carbonitrile] |
| 1.1 | 0.76 | CC(=O)NCc1ccc(-c2cccc(Nc3cc(NC4CCOCC4)nn4c(C#N)cnc34)n2)cc1 [Example 50, N-({4-[6-({3-cyano-6-[(oxan-4-yl)amino]imidazo[1,2-b]pyridazin-8-yl}amino)pyridin-2-yl]phenyl}methyl)acetamide] |
